Where “and” joins values, the source holds several entries; their conditions need not be identical. Equal entries are not always repeated. Where two headings read alike, the source gives them in different places.
Legend:
[1] = Equilibrium solubility in aqueous media at ambient temperature, HPLC after 24 hours; assay type: physicochemical; settings: for Amt Dissolved: 24 hours equilibration
Method: Extensive equilibrium solubility determinations were undertaken for both hygroscopic and anhydrous F-I in a variety of aqueous media at ambient temperature. Additionally, the equilibrium solubility of FB Form I was measured at ambient temperature.

[2] = Intrinsic dissolution of 100 mg compact; assay type: physicochemical; settings: for % of 100 mg Compact Dissolved in 10 Minutes: Dissolution Medium 0.1 N HCl
Method: To confirm that variability in the hygroscopicity of F-I lots should not adversely impact bioavailability, intrinsic dissolution rates were also measured for the hygroscopic and anhydrous F-I. For comparison purposes, the intrinsic dissolution rate of FB Form I was also measured.

[3] = Plasma pharmacokinetics after single oral gavage, cross-over design; assay type: in vivo; settings: fed female beagle dogs; for AUC0-24 / AUC0-inf / Cmax: single oral 5 mg/kg by gavage, individual animals 1-6, 5 mg/kg
Method: The 6 dogs were randomized into two treatment groups to receive single doses of FB Form I followed by a single dose of F-I two weeks later, or vice versa. On Days 1 and 14, 3 dogs received FB Form 1 and 3 dogs received F-I, and blood samples were collected at 0.5, 1, 2, 3, 4, 8, 12 and 24 hours post dosing. Concentrations of FB Form I were determined by liquid chromatography tandem mass spectrometry.

[4] = Hygroscopicity / moisture sorption (weight gain vs RH); assay type: physicochemical
Description: The different water contents prompted an investigation into the moisture sorption characteristics of those lots of crystalline FB-HCl that were not anhydrous. […] Crystalline FB-HCl material capable of water sorption is hereafter referred to as “hygroscopic F-I”.

[5] = system: VEGF-stimulated proliferation of HUVEC cells; assay: VEGF-stimulated proliferation of HUVEC cells in culture; assay type: cell-based; settings: 72 hours of exposure
Description: (§1) The salt of the present invention is an inhibitor of vascular endothelial growth factor (VEGF)-induced angiogenesis. […] These assay systems are more fully described in WO 02/02116. The salt of the present invention is, thus, effective in treating cancer and inhibiting tumor growth.

[6] = system: VEGF-induced neo-angiogenesis; assay: VEGF-induced neo-angiogenesis in the rat corneal micropocket; assay type: in vivo; settings: administered orally for 10 days
Description: as §1

[7] = 0.01 N HCl, ambient temperature
[8] = SIF, fed pH 5.0, ambient temperature
[9] = pH 2.2 buffer, ambient temperature

Compound | Filtrate pH ([1]; 0.01 N HCl) | Amt Dissolved [1, 7] | Filtrate pH ([1]; SIF, fed pH 5.0) | Amt Dissolved [1, 8] | Filtrate pH ([1]; pH 2.2 buffer) | Amt Dissolved [1, 9] | dissolution of a 100 mg compact within 10 minutes [2] | % of 100 mg Compact Dissolved in 10 Minutes [2] | hygroscopicity [4] | further results
Cn1cc(C2=C(c3cn(C4CCN(Cc5ccccn5)CC4)c4ccccc34)C(=O)NC2=O)c2ccccc21 [FB Form I] | 2.20 | 0.279 mg/mL and 0.355 mg/mL | 4.94 | 0.073 mg/mL and 0.074 mg/mL | 2.21 | 0.346 mg/mL and 0.336 mg/mL | > 10% | >30% |  | AUC0-24 [3]: 2443.1 nM·h and 389.3 nM·h and 2092.4 nM·h and 3477.5 nM·h and 5119.5 nM·h and 2270.2 nM·h; AUC0-inf [3]: 2578.6 nM·h and 400.6 nM·h and 2113.9 nM·h and 3603.1 nM·h and 5333.1 nM·h and 2306.3 nM·h; Cmax [3]: 0.337 µM and 0.0998 µM and 0.532 µM and 0.6 µM and 0.552 µM and 0.718 µM
tartrate |  |  |  |  |  |  |  |  | only slightly hygroscopic | weight gain ([4]; at RH's up to 70%): ~1%
Cl.Cn1cc(C2=C(C3CCN(Cc4ccccn4)CC3)C(=O)NC2=O)c2ccccc21 [Hygroscopic F-I] | 2.25 | 0.046 mg/mL and 0.053 mg/mL | 4.93 | 0.014 mg/mL and 0.015 mg/mL | 2.26 | 0.324 mg/mL and 0.352 mg/mL | no appreciable dissolution | <<0.5% |  | maximum moisture sorption ([4]; at 40% RH): 1.6%
Cl.Cn1cc(C2=C(c3cn(C4CCN(Cc5ccccn5)CC4)c4ccccc34)C(=O)NC2=O)c2ccccc21 [F-I] |  |  |  |  |  |  |  |  | not significantly hygroscopic | weight gain ([4]; at 95% RH): < 2%; hygroscopicity ([4]; between 0-70% RH): relatively non-hygroscopic; inhibition of VEGF-stimulated proliferation of HUVEC cells [5]: potent inhibitor; inhibition of VEGF-induced neo-angiogenesis in the rat corneal micropocket [6]: highly effective inhibitor; plasma exposure (AUC 0 to 24 hr and 0 to infinity) compared with FB Form I ([3]; single oral 5 mg/kg): significantly higher; AUC0-24 ([3]; mono-hydrochloride): 3592.3 nM·h and 1735.0 nM·h and 2970.0 nM·h and 4064.4 nM·h and 6150.1 nM·h and 2944.5 nM·h; AUC0-inf ([3]; mono-hydrochloride): 3828.6 nM·h and 1798.4 nM·h and 3016.1 nM·h and 4200.8 nM·h and 6630.8 nM·h and 2998.3 nM·h; Cmax ([3]; mono-hydrochloride): 0.481 µM and 0.327 µM and 0.679 µM and 0.501 µM and 0.774 µM and 0.45 µM

— US8114901B2, “Crystalline 2,5-dione-3-(1-methyl-1H-indol-3-yl)-4-[1-(pyridin-2-ylmethyl)piperidin-4-yl]-1H-indol-3-yl]-1H-pyrrole mono-hydrochloride” (Eli Lilly and Company, priority 2002, dated 2012)
